Active and inactive are the calls of the source. How the calls were made is not given here.
target: Gag-Pol polyprotein (Human immunodeficiency virus type 1 group M subtype B (isolate HXB2)) (UniProt P04585); assay: HIV-1 RT RNase H inhibitor potency, dose response, biochemical, probe assessment (AID 652); conditions: HIV-1 RT RNase H enzymatic assay

SMILES | IC50
CCCCn1c(SCC(=O)OCC)nc2c1c(=O)[nH]c(=O)n2C | > 50 µM (inactive)

same assay, conditions: HIV-1 RT RNase H enzymatic assay, inhibition, at 50 µM, stronger effect = higher value

SMILES | inhibition [%]
Cc1ccccc1NC(=O)CSc1nc2c(c(-c3ccco3)c1C#N)CCCC2 | 97.2
CCCCn1c(SCC(=O)OCC)nc2c1c(=O)[nH]c(=O)n2C | 55.7
CC(C)(C)c1ccc(-c2nnc3sc(-c4ccncc4)nn23)cc1 | 96.3
CCCc1nnc(NC(=O)CN2C(=O)c3ccccc3S2(=O)=O)s1 | 75.7
COc1ccccc1CNC(=O)c1cc2c(=O)n(C)c3ccccc3c2n1C | 86

— PubChem BioAssay AID652 (University of Pittsburgh Molecular Library Screening Center, 2007)
